From patent publication US9593110B2, “Neprilysin inhibitors” (Theravence Biopharma R&D IP, LLC, priority 2014, dated 2017)

Target: human NEP (Homo sapiens (Human), UniProt P08473)
Experiment: In vitro enzyme inhibition assay at human NEP
Conditions: recombinant human NEP, fluorogenic peptide substrate, 37° C.; for Ki: pKi

Sequence of human NEP (P08473 52-750): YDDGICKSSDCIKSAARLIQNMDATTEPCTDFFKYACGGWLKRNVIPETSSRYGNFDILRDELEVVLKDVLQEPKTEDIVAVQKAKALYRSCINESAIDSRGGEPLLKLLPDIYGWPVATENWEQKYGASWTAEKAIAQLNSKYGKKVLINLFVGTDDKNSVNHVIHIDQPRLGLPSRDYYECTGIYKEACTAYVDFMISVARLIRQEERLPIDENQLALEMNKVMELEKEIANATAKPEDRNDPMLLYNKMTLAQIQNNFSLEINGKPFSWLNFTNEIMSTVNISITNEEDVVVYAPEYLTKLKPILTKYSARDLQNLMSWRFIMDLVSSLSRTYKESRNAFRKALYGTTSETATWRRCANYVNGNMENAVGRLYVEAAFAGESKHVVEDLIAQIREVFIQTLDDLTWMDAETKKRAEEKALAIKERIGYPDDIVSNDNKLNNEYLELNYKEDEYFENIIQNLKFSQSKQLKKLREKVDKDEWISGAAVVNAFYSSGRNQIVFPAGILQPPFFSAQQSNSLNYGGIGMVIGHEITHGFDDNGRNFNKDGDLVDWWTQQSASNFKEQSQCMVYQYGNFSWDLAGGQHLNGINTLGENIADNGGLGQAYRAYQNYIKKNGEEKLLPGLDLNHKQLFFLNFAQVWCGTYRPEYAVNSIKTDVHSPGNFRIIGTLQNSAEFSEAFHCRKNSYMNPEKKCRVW

Structure (SMILES) | pKi | Ki [nM]
CNC(=O)c1cc(C(=O)N[C@H](Cc2ccc(-c3cc(Cl)ccc3F)cc2)C[C@@H](N)C(=O)O)[nH]n1 [Example 16-21, (2R,4R)-2-Amino-5-(5′-chloro-2′-fluorobiphenyl-4-yl)-4-[(5-methylcarbamoyl-2H-pyrazole-3-carbonyl)amino]pentanoic acid] | ≧9.0 | –
N[C@H](C[C@@H](Cc1ccc(-c2cc(Cl)ccc2F)cc1)NC(=O)c1nc2cc(Cl)ccn2n1)C(=O)O [Example 16-25, (2R,4R)-2-Amino-5-(5′-chloro-2′-fluorobiphenyl-4-yl)-4-[(7-chloro-[1,2,4]triazolo[1,5-a]pyridine-2-carbonyl)amino]pentanoic acid] | ≧9.0 | –
N[C@@H](C[C@@H](Cc1ccc(-c2cc(Cl)ccc2F)cc1)NC(=O)c1nc2cc(Cl)ccn2n1)C(=O)O [Example 16-26, (2S,4R)-2-Amino-5-(5′-chloro-2′-fluorobiphenyl-4-yl)-4-[(7-chloro-[1,2,4]triazolo[1,5-a]pyridine-2-carbonyl)amino]pentanoic acid] | – | 1.26 to 3.16
N[C@@H](C[C@@H](Cc1ccc(-c2cc(Cl)ccc2F)cc1)NC(=O)c1cc(O)no1)C(=O)O [Example 16-27, (2S,4R)-2-Amino-5-(5′-chloro-2′-fluorobiphenyl-4-yl)-4-[(3-hydroxyisoxazole-5-carbonyl)amino]pentanoic acid] | – | 1.26 to 3.16
N[C@H](C[C@@H](Cc1ccc(-c2cc(Cl)ccc2F)cc1)NC(=O)c1cc(O)no1)C(=O)O [Example 16-28, (2R,4R)-2-Amino-5-(5′-chloro-2′-fluorobiphenyl-4-yl)-4-[(3-hydroxyisoxazole-5-carbonyl)amino]pentanoic acid] | ≧9.0 | –
N[C@H](C[C@@H](Cc1ccc(-c2cc(Cl)ccc2F)cc1)NC(=O)c1ncccn1)C(=O)O [Example 16-29, (2R,4R)-2-Amino-5-(5′-chloro-2′-fluorobiphenyl-4-yl)-4-[(pyrimidine-2-carbonyl)-amino]pentanoic acid] | ≧9.0 | –
N[C@H](C[C@@H](Cc1ccc(-c2cc(Cl)ccc2F)cc1)NC(=O)c1coc(=O)[nH]1)C(=O)O [Example 16-31, (2R,4R)-2-Amino-5-(5′-chloro-2′-fluorobiphenyl-4-yl)-4-[(2-oxo-2,3-dihydro-oxazole-4-carbonyl)amino]pentanoic acid] | ≧9.0 | –
N[C@H](C[C@@H](Cc1ccc(-c2cc(Cl)ccc2F)cc1)NC(=O)c1cc(-c2cnccn2)n[nH]1)C(=O)O [Example 16-33, (2R,4R)-2-Amino-5-(5′-chloro-2′-fluorobiphenyl-4-yl)-4-[(5-pyrazin-2-yl-2H-pyrazole-3-carbonyl)amino]pentanoic acid] | ≧9.0 | –
N[C@H](C[C@@H](Cc1ccc(-c2cc(Cl)ccc2F)cc1)NC(=O)c1nn(-c2ccccc2)c(=O)[nH]1)C(=O)O [Example 16-35, (2R,4R)-2-Amino-5-(5′-chloro-2′-fluorobiphenyl-4-yl)-4-[(5-oxo-1-phenyl-4,5-dihydro-1H-[1,2,4]triazole-3-carbonyl)amino]p entanoic acid] | ≧9.0 | –
CC(C)c1coc(C(=O)N[C@H](Cc2ccc(-c3cc(Cl)ccc3F)cc2Cl)C[C@@H](N)C(=O)O)n1 [Example 17, (2R,4R)-2-Amino-5-(3,5′-dichloro-2′-fluorobiphenyl-4-yl)-4-[(4-isopropyloxazole-2-carbonyl)amino]pentanoic Acid] | – | ≤ 1
CC(C)c1coc(C(=O)N[C@H](Cc2ccc(-c3cc(Cl)ccc3F)cc2Cl)C[C@H](N)C(=O)O)n1 [Example 18-1, (2S,4R)-2-Amino-5-(3,5′-dichloro-2′-fluorobiphenyl-4-yl)-4-[(4-isopropyloxazole-2-carbonyl)amino]pentanoic acid] | – | 3.16 to 10
CCCc1nc(C(=O)N[C@H](Cc2ccc(-c3cc(Cl)ccc3F)cc2Cl)C[C@@H](N)C(=O)O)co1 [Example 18-2, (2R,4R)-2-Amino-5-(3,5′-dichloro-2′-fluorobiphenyl-4-yl)-4-[(2-propyloxazole-4-carbonyl)amino]pentanoic acid] | ≧9.0 | –
Cc1cnc(C(=O)N[C@H](Cc2ccc(-c3cc(Cl)ccc3F)cc2Cl)C[C@@H](N)C(=O)O)o1 [Example 18-3, (2R,4R)-2-Amino-5-(3,5′-dichloro-2′-fluorobiphenyl-4-yl)-4-[(5-methyloxazole-2-carbonyl)amino]pentanoic acid] | ≧9.0 | –
Cc1cnc(C(=O)N[C@H](Cc2ccc(-c3cc(Cl)ccc3F)cc2Cl)C[C@H](N)C(=O)O)o1 [Example 18-4, (2S,4R)-2-Amino-5-(3,5′-dichloro-2′-fluorobiphenyl-4-yl)-4-[(5-methyloxazole-2-carbonyl)amino]pentanoic acid] | – | 3.16 to 10
CCc1cc(C(=O)N[C@H](Cc2ccc(-c3cc(Cl)ccc3F)cc2Cl)C[C@@H](N)C(=O)O)on1 [Example 18-5, (2R,4R)-2-Amino-5-(3,5′-dichloro-2′-fluorobiphenyl-4-yl)-4-[(3-ethylisoxazole-5-carbonyl)amino]pentanoic acid] | – | 1.26 to 3.16
CCc1cc(C(=O)N[C@H](Cc2ccc(-c3cc(Cl)ccc3F)cc2Cl)C[C@H](N)C(=O)O)on1 [Example 18-6, (2S,4R)-2-Amino-5-(3,5′-dichloro-2′-fluorobiphenyl-4-yl)-4-[(3-ethylisoxazole-5-carbonyl)amino]pentanoic acid] | ≧9.0 | –

Structure (SMILES) | pKi | Ki [nM]
COCc1cc(C(=O)N[C@H](Cc2ccc(-c3cc(Cl)ccc3F)cc2Cl)C[C@@H](N)C(=O)O)no1 [Example 18-7, (2R,4R)-2-Amino-5-(3,5′-dichloro-2′-fluorobiphenyl-4-yl)-4-[(5-methoxymethylisoxazole-3-carbonyl)amino]pentanoic acid] | – | 10 to 31.6
COCc1cc(C(=O)N[C@H](Cc2ccc(-c3cc(Cl)ccc3F)cc2Cl)C[C@H](N)C(=O)O)no1 [Example 18-8, (2S,4R)-2-Amino-5-(3,5′-dichloro-2′-fluorobiphenyl-4-yl)-4-[(5-methoxymethylisoxazole-3-carbonyl)amino]pentanoic acid] | ≧9.0 | –
N[C@H](C[C@@H](Cc1ccc(-c2cc(Cl)ccc2F)cc1Cl)NC(=O)c1cc(C2CC2)on1)C(=O)O [Example 18-9, (2R,4R)-2-Amino-4-[(5-cyclopropyl-isoxazole-3-carbonyl)-amino]-5-(3,5′-dichloro-2′-fluorobiphenyl-4-yl)pentanoic acid] | – | 3.16 to 10
N[C@@H](C[C@@H](Cc1ccc(-c2cc(Cl)ccc2F)cc1Cl)NC(=O)c1cc(C2CC2)on1)C(=O)O [Example 18-10, (2S,4R)-2-Amino-4-[(5-cyclopropyl-isoxazole-3-carbonyl)-amino]-5-(3,5′-dichloro-2′-fluorobiphenyl-4-yl)pentanoic acid] | ≧9.0 | –
COc1cnc(C(=O)N[C@H](Cc2ccc(-c3cc(Cl)ccc3F)cc2Cl)C[C@@H](N)C(=O)O)o1 [Example 18-11, (2R,4R)-2-Amino-5-(3,5′-dichloro-2′-fluoro-biphenyl-4-yl)-4-[(5-methoxyoxazole-2-carbonyl)amino]pentanoic acid] | ≧9.0 | –
COc1cnc(C(=O)N[C@H](Cc2ccc(-c3cc(Cl)ccc3F)cc2Cl)C[C@H](N)C(=O)O)o1 [Example 18-12, (2S,4R)-2-Amino-5-(3,5′-dichloro-2′-fluoro-biphenyl-4-yl)-4-[(5-methoxyoxazole-2-carbonyl)amino]pentanoic acid] | – | 3.16 to 10
NC[C@H](C[C@@H](Cc1ccc(-c2cc(Cl)ccc2F)cc1)NC(=O)c1c[nH]nn1)C(=O)O [Example 20, (2S,4S)-2-Aminomethyl-5-(5′-chloro-2′-fluorobiphenyl-4-yl)-4-[(1H-[1,2,3]triazole-4-carbonyl)amino]pentanoic Acid] | ≧9.0 | –
NC[C@H](C[C@@H](Cc1ccc(-c2cc(Cl)ccc2F)cc1)NC(=O)c1coc(C2CC2)n1)C(=O)O [Example 21-2, (2S,4S)-2-Aminomethyl-5-(5′-chloro-2′-fluorobiphenyl-4-yl)-4-[(2-cyclopropyl-oxazole-4-carbonyl)amino]pentanoic acid] | – | 1.26 to 3.16
Cc1cnc(C(=O)N[C@H](Cc2ccc(-c3cc(Cl)ccc3F)cc2)C[C@@H](CN)C(=O)O)o1 [Example 21-3, (2S,4S)-2-Aminomethyl-5-(5′-chloro-2′-fluorobiphenyl-4-yl)-4-[(5-methyl-oxazole-2-carbonyl)amino]pentanoic acid] | ≧9.0 | –
CCOc1nc(C(=O)N[C@H](Cc2ccc(-c3cc(Cl)ccc3F)cc2)C[C@@H](CN)C(=O)O)co1 [Example 21-4, (2S,4S)-2-Aminomethyl-5-(5′-chloro-2′-fluorobiphenyl-4-yl)-4-[(2-ethoxy-oxazole-4-carbonyl)amino]pentanoic acid] | – | 1.26 to 3.16
Cc1nc(C(=O)N[C@H](Cc2ccc(-c3cc(Cl)ccc3F)cc2)C[C@@H](CN)C(=O)O)co1 [Example 21-5, (2S,4S)-2-Aminomethyl-5-(5′-chloro-2′-fluorobiphenyl-4-yl)-4-[(2-methyloxazole-4-carbonyl)amino]pentanoic acid] | – | 1.26 to 3.16
Cc1cc(C(=O)N[C@H](Cc2ccc(-c3cc(Cl)ccc3F)cc2)C[C@@H](CN)C(=O)O)sn1 [Example 21-6, (2S,4S)-2-Aminomethyl-5-(5′-chloro-2′-fluorobiphenyl-4-yl)-4-[(3-methylisothiazole-5-carbonyl)amino]pentanoic acid] | – | 1.26 to 3.16
NC[C@H](C[C@@H](Cc1ccc(-c2cc(Cl)ccc2F)cc1)NC(=O)c1cnsc1)C(=O)O [Example 21-7, (2S,4S)-2-Aminomethyl-5-(5′-chloro-2′-fluorobiphenyl-4-yl)-4-[(isothiazole-4-carbonyl)amino]pentanoic acid] | – | 1.26 to 3.16
NC[C@H](C[C@@H](Cc1ccc(-c2ccccc2)cc1)NC(=O)c1c[nH]nn1)C(=O)O [Example 22, (2S,4S)-2-Aminomethyl-5-biphenyl-4-yl-4-[(1H-[1,2,3]triazole-4-carbonyl)amino]pentanoic Acid] | – | 1.26 to 3.16
Cc1cnc(C(=O)N[C@H](Cc2ccc(-c3cc(Cl)ccc3F)cc2)C[C@@H](CCN)C(=O)O)o1 [Example 23, (2R,4S)-2-(2-Aminoethyl)-5-(5′-chloro-2′-fluorobiphenyl-4-yl)-4-[(5-methyloxazole-2-carbonyl)amino]pentanoic Acid] | – | 1.26 to 3.16
